From PubChem BioAssay (NCI)
Several values for one entry are separate records, joined by “and”; a condition that tells them apart may be missing. Equal values may be shown once.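 Protocol summary: plate cells (96-well), add compound at 5 concentrations, incubate 48 h, interpolate endpoints linearly. At the GI50, growth is halved. The concentration for full growth arrest is given as TGI.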

Tests used:
Assay in all cases: growth of human tumour cells (NCI), 48 h
ACHN renal = tested on: ACHN renal
LXFL 529 NSCLC = tested on: LXFL 529 NSCLC
NCI-H460 lung = tested on: NCI-H460 lung
OVCAR-4 ovarian = tested on: OVCAR-4 ovarian
SN12C renal = tested on: SN12C renal
SNB-19 CNS = tested on: SNB-19 CNS
SNB-75 CNS = tested on: SNB-75 CNS
CAKI-1 renal = tested on: CAKI-1 renal
M19-MEL melanoma = tested on: M19-MEL melanoma
MDA-MB-231 breast = tested on: MDA-MB-231 breast

Row | Structure (SMILES) | GI50 (ACHN renal) | TGI (ACHN renal) | GI50 (LXFL 529 NSCLC) | TGI (LXFL 529 NSCLC) | GI50 (NCI-H460 lung) | TGI (NCI-H460 lung) | GI50 (OVCAR-4 ovarian) | TGI (OVCAR-4 ovarian) | GI50 (SN12C renal) | TGI (SN12C renal) | GI50 (SNB-19 CNS) | TGI (SNB-19 CNS) | GI50 (SNB-75 CNS) | TGI (SNB-75 CNS) | TGI (CAKI-1 renal) | TGI (M19-MEL melanoma) | GI50 (CAKI-1 renal) | GI50 (MDA-MB-231 breast) | TGI (MDA-MB-231 breast)
1 | CCCCC(=O)[O-].N.N.N.N.N.[Co+3].[O-][Cl+3]([O-])([O-])[O-] | > 100 µM | > 100 µM | > 100 µM | > 100 µM | > 100 µM | > 100 µM | > 100 µM | > 100 µM | > 100 µM | > 100 µM | > 100 µM | > 100 µM | 49.3 µM | > 100 µM | – | – | – | – | –
2 | COc1ccc(C=NC23CC4CC(CC(C4)C2)C3)cc1 | – | > 100 µM | – | – | – | > 100 µM | – | > 100 µM | – | > 100 µM | – | > 100 µM | – | > 100 µM | > 100 µM | > 10 µM | – | – | –
3 | CO/N=C1/NC(=O)/C(=C/c2ccc3ncccc3c2)S1 | 10.6 µM | > 25 µM | – | – | 9.08 µM | > 25 µM | > 25 µM | > 25 µM | 16.3 µM | > 25 µM | 11.6 µM | > 25 µM | 4.07 µM | > 25 µM | > 25 µM | – | 8.49 µM | > 25 µM | > 25 µM
4 | Cc1c(CN2CCC(Nc3ncnc4sc(CC(F)(F)F)cc34)CC2)ccc2c1cc(C#N)n2Cc1cn[nH]c1 | 4.47 µM and 10.7 µM | 19.5 µM and > 38 µM | – | – | 2.19 µM and 2.8 µM | 7.31 µM | 2.2 µM and 1.77 µM | 22.3 µM | 8.76 µM | 26.4 µM | 6.75 µM and 6.03 µM | 28.9 µM | 8.38 µM and 2.47 µM | 26.1 µM and 27.7 µM | 22.1 µM and > 40.3 µM | – | 4.43 µM | 2.32 µM and 4.04 µM | 7.12 µM
5 | Fc1ccc(-c2nnc3sc(-c4cccc(Cl)c4)nn23)cc1Cl | > 100 µM | > 100 µM | – | – | > 100 µM | > 100 µM | > 100 µM | > 100 µM | > 100 µM | > 100 µM | > 100 µM | > 100 µM | 44.4 µM | > 100 µM | > 100 µM | – | > 100 µM | > 100 µM | > 100 µM
6 | CN1CCN(Cc2ccc(NC(=O)c3[nH]ncc3Nc3ncnc4c3CCC4)cc2)CC1 | 1.32 µM | 9.09 µM | – | – | 1.87 µM | 10.6 µM | 1.49 µM | 6.67 µM | 1.01 µM | 20.2 µM | 2.87 µM | 14.8 µM | 0.0341 µM | 3.2 µM | 11.1 µM | – | 2.73 µM | 2.98 µM | 7.8 µM
7 | O=C(Nc1ccncc1)C(=O)c1cn(S(=O)(=O)c2ccccc2F)c2ccccc12 | 5.21 µM | > 70.9 µM | – | – | 6.75 µM | > 100 µM | 3.59 µM | > 100 µM | 2.65 µM | > 90.6 µM | 7.17 µM | > 80.4 µM | 1.65 µM | 18 µM | > 70.8 µM | – | 2.43 µM | 3.97 µM | 64.9 µM
8 | CCN(CC)CCCC(C)Nc1cnc(C(=O)Nc2cc(F)cc3cccnc23)cn1 (stereo unspecified) | 2.81 µM and 0.683 µM | 9.61 µM and 1.96 µM | – | – | 4.64 µM and 2.06 µM | 16.6 µM and 4.22 µM | 2.24 µM and 0.35 µM | – | 6.4 µM and 1.23 µM | 19.3 µM and 2.54 µM | 10.5 µM and 1.73 µM | 22.8 µM and 3.14 µM | 4.49 µM and 1.45 µM | 20.1 µM and 2.79 µM | 15.4 µM and 5.71 µM | – | 2.89 µM and 2.05 µM | 3.42 µM and 0.568 µM | 12.8 µM and 2.02 µM
9 | CCS(=O)(=O)c1ccc(OC)c(Nc2nccc(N(C)c3ccc4c(C)[nH]nc4c3)n2)c1 | 5.95 µM | > 24.1 µM | – | – | 8.67 µM | > 25 µM | 5.66 µM | > 25 µM | 5.23 µM | > 25 µM | 9.74 µM | > 25 µM | 2.94 µM | 8.38 µM | 12.3 µM | – | 3.75 µM | 3.66 µM | 9.45 µM
10 | CCOC(=O)C(Cc1c[nH]c2cc([N+](=O)[O-])ccc12)(NC(C)=O)C(=O)OCC | 178 µM | > 1000 µM | – | – | – | > 1000 µM | > 1000 µM | > 1000 µM | 401 µM | > 1000 µM | 148 µM | > 824 µM | 93.5 µM and 46.8 µM | 114 µM | > 1000 µM | – | 190 µM | 167 µM | > 715 µM
11 | O=C1C(Cl)=C(N2CCOCC2)C(=O)c2ccccc21 | 1.99 µM | 3.48 µM | – | – | 20.2 µM | 42.8 µM | 1.61 µM | 3.02 µM | 10.7 µM | 23.1 µM | 16.1 µM | 30.1 µM | 14.2 µM | 27.8 µM | 3.49 µM | – | 1.88 µM | 1.75 µM | 3.72 µM
12 | CCc1ccc(CCC(=O)Nc2ncc(Cc3ccccc3)s2)o1 | 5.68 µM | > 100 µM | – | – | 3.06 µM | > 100 µM | 27.8 µM | > 100 µM | 4.42 µM | > 100 µM | 3.92 µM | > 100 µM | 1.24 µM | > 100 µM | > 100 µM | – | 2.94 µM | 2.52 µM | 22.2 µM
13 | C=C1C(=O)O[C@@H]2C[C@@H](C)[C@@H]3[C@@H](OC4OC(COC(C)=O)C(O)C(O)C4O)CC(=O)[C@@]3(C)C[C@H]12 (stereo partly specified) | – | 0.987 µM | – | – | – | 28.7 µM | – | 12.5 µM | – | 3.51 µM | – | 45.1 µM | – | 15.3 µM | 1.01 µM | – | – | – | 8.92 µM
14 | N#CC1(c2nc3ccccc3o2)C(=O)C(=O)N(c2ccc(Cl)c(Cl)c2)C(=O)C1=O | – | > 100 µM | – | > 100 µM | – | > 100 µM | – | > 100 µM | – | > 100 µM | – | > 100 µM | – | > 100 µM | > 100 µM | – | – | – | –
15 | O=C(Nc1ccc2oc(=O)c(C(=O)O)cc2c1)Oc1ccccc1 | – | > 100 µM | – | – | – | > 100 µM | – | > 100 µM | – | > 100 µM | – | > 100 µM | – | > 100 µM | > 100 µM | – | – | – | > 100 µM
16 | C=C(CN1CCN(c2ccccc2F)CC1)c1ccc(C(=O)Nc2ccccc2N)cc1 | 2.77 µM | > 100 µM | – | – | 4.44 µM | > 100 µM | 5.01 µM | > 100 µM | 1.82 µM | 40.9 µM | 3.74 µM | > 100 µM | 2.27 µM | 8.14 µM | 7.18 µM | – | 1.81 µM | 0.24 µM | 3.14 µM
17 | O=C(CNC(=O)c1cccc2ccccc12)Nc1ccccc1Oc1ccccc1 | 0.833 µM | > 10 µM | – | – | 0.333 µM | > 10 µM | 4.54 µM | > 10 µM | 0.583 µM | > 10 µM | 0.461 µM | > 10 µM | 0.231 µM | > 10 µM | > 10 µM | – | 0.353 µM | 0.982 µM | > 10 µM
